Results as given in US11980188B2, “Spiro cyclohexanedione derivates as herbicides” (SYNGENTA PARTICIPATIONS AG, priority 2018, dated 2024).

Legend:
AVEFA = assay: Post-emergence comparison with comparator C1 at indicated application rates; type: in vivo, Avena fatua
Method: (§1) Seeds of a variety of test species are sown in standard soil in pots (Lolium perenne (LOLPE), Setaria faberi (SETFA), Alopecurus myosuroides (ALOMY), Echinochloa crus-galli (ECHCG), Avena fatua (AVEFA)). After cultivation for one day (pre-emergence) or after 8 days cultivation (post-emergence) under controlled conditions in a glasshouse (at 24/16° C., day/night; 14 hours light; 65% humidity), the plants are sprayed with an aqueous spray solution derived from the formulation of the technical active ingredient in acetone/water (50:50) solution containing 0.5% Tween 20 (polyoxyethelyene sorbitan monolaurate, CAS RN 9005-64-5). Compounds are applied at […]. The test plants are then grown in a glasshouse under controlled conditions in a glasshouse (at 24/16° C., day/night; 14 hours light; 65% humidity) and watered twice daily. After 13 days for pre and post-emergence, the test is evaluated for the percentage damage caused to the plant. The biological activities are shown in the following table on a five point scale (5=80-100%; 4=60-79%; 3=40-59%; 2=20-39%; 1=0-19%).
(§2) Using procedures outlines above, weed species ALOMY, AVEFA & LOLPE are treated post-emergence with compound A4 of the present invention or comparator compound C1 (Compound T-26 from WO2008/110308) at the application rates indicated. The test is evaluated for the percentage damage caused to the plant.

ALOMY = assay: as above; type: in vivo, Alopecurus myosuroides
Method: as §1, §2

[1] = system: weed species ALOMY, AVEFA & LOLPE; assay: Post-emergence comparison with comparator C1, overall conclusion; type: in vivo; details: 63 and 16 g/ha, Table B2
Method: as §1, §2

LOLPE = assay: Post-emergence comparison with comparator C1 at indicated application rates; type: in vivo, Lolium perenne
Method: as §1, §2

[2] = system: Alopecurus myosuroides (ALOMY); assay: Glasshouse herbicide test, pre- and post-emergence, percentage damage; type: in vivo; details: 250 g/h, evaluated after 13 days, percentage damage on five point scale; for ALOMY POST: post-emergence; for ALOMY PRE: pre-emergence
Outline: (§3)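 Percentage damage, read 13 days after treatment and banded into five classes (1=0-19% up to 5=80-100%). Plants in pots of standard soil received 250 g/h as a spray from acetone/water (50:50) containing 0.5% Tween 20. Application was one day (pre-emergence) or eight days (post-emergence) after sowing.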

Setaria faberi (SETFA) = assay: as above; type: in vivo; details: 250 g/h, evaluated after 13 days, percentage damage on five point scale; for SETFA POST: post-emergence; for SETFA PRE: pre-emergence
Outline: as §3

[3] = system: Echinochloa crus-galli (ECHCG); assay: as above; type: in vivo; details: 250 g/h, evaluated after 13 days, percentage damage on five point scale; for ECHCG POST: post-emergence; for ECHCG PRE: pre-emergence
Outline: as §3

Avena fatua (AVEFA) = assay: as above; type: in vivo; details: 250 g/h, evaluated after 13 days, percentage damage on five point scale; for AVEFA POST: post-emergence; for AVEFA PRE: pre-emergence
Outline: as §3

Lolium perenne (LOLPE) = assay: as above; type: in vivo; details: 250 g/h, evaluated after 13 days, percentage damage on five point scale; for LOLPE POST: post-emergence; for LOLPE PRE: pre-emergence
Outline: as §3

Structure (SMILES)	AVEFA percentage damage (AVEFA; rate 16 g/ha) [%]	AVEFA percentage damage (AVEFA; rate 63 g/ha) [%]	ALOMY percentage damage (ALOMY; rate 16 g/ha) [%]	ALOMY percentage damage (ALOMY; rate 63 g/ha) [%]	weed control vis-à-vis prior art compound C1 [1]	LOLPE percentage damage (LOLPE; rate 16 g/ha) [%]	LOLPE percentage damage (LOLPE; rate 63 g/ha) [%]	ALOMY POST [2]	ALOMY PRE [2]	SETFA POST (Setaria faberi (SETFA))	SETFA PRE (Setaria faberi (SETFA))	ECHCG POST [3]	ECHCG PRE [3]	AVEFA POST (Avena fatua (AVEFA))	AVEFA PRE (Avena fatua (AVEFA))	LOLPE POST (Lolium perenne (LOLPE))	LOLPE PRE (Lolium perenne (LOLPE))
CON1CCC2(CC1)CC(=O)C(c1c(C)cc(C)cc1C)C(=O)C2 [Compound A4]	40	90	40	90	improved weed control	70	90	5 (5=80-100%)	5 (5=80-100%)	5 (5=80-100%)	5 (5=80-100%)	5 (5=80-100%)	5 (5=80-100%)	5 (5=80-100%)	5 (5=80-100%)	5 (5=80-100%)	5 (5=80-100%)
COc1cc(-c2ccc(F)cc2)cc(OC)c1C1C(=O)CC2(CCN(OC)CC2)CC1=O [Compound A7]	100	100	80	100	improved weed control	90	100	5 (5=80-100%)	5 (5=80-100%)	5 (5=80-100%)	5 (5=80-100%)	5 (5=80-100%)	5 (5=80-100%)	5 (5=80-100%)	5 (5=80-100%)	5 (5=80-100%)	5 (5=80-100%)
CC(=O)N1CCC2(CC1)CC(=O)C(c1c(C)cc(-c3ncc(F)cn3)cc1C)C(=O)C2 [Compound A13, 3-acetyl-9-[4-(5-fluoropyrimidin-2-yl)-2,6-dimethyl-phenyl]-3-azaspiro[5.5]undecane-8,10-dione]	90	100	90	100	improved weed control	70	90	5 (5=80-100%)	5 (5=80-100%)	5 (5=80-100%)	5 (5=80-100%)		5 (5=80-100%)	5 (5=80-100%)	5 (5=80-100%)	5 (5=80-100%)	5 (5=80-100%)
Cc1cc(-c2ccc(F)cc2)cc(C)c1C1C(=O)CC2(CCN(C(=O)C(C)(C)C)CC2)CC1=O [Compound A61]									5 (5=80-100%)	5 (5=80-100%)	5 (5=80-100%)	5 (5=80-100%)	5 (5=80-100%)	4 (4=60-79%)	2 (2=20-39%)	5 (5=80-100%)	5 (5=80-100%)
Cc1cc(-c2ccc(F)cc2)cc(C)c1C1C(=O)CC2(CCN(C(=O)CC#N)CC2)CC1=O [Compound A63]									5 (5=80-100%)	5 (5=80-100%)	5 (5=80-100%)	4 (4=60-79%)	5 (5=80-100%)	5 (5=80-100%)	5 (5=80-100%)	5 (5=80-100%)	5 (5=80-100%)
COc1cc(-c2ccc(F)cc2)cc(C)c1C1C(=O)CC2(CCN(C(=O)NC(=O)c3ccccn3)CC2)CC1=O [Compound A73]									5 (5=80-100%)	5 (5=80-100%)	5 (5=80-100%)	5 (5=80-100%)	4 (4=60-79%)	5 (5=80-100%)	1 (1=0-19%)	5 (5=80-100%)	1 (1=0-19%)
COc1cc(-c2ccc(F)cc2)cc(C)c1C1C(=O)CC2(CCN(C(=O)C(C)O)CC2)CC1=O (stereo not shown) [Compound A75]								5 (5=80-100%)	5 (5=80-100%)	5 (5=80-100%)	5 (5=80-100%)	5 (5=80-100%)	5 (5=80-100%)	5 (5=80-100%)	5 (5=80-100%)	5 (5=80-100%)	5 (5=80-100%)
Cc1cc(C)c(C2C(=O)CC3(CCOCC3)CC2=O)c(C)c1 [Compound C1, reference compound]	20	70	20	80		30	60										
CC(=O)OC1=C(c2c(C)cc(-c3ccc(F)cc3)cc2C)C(=O)CC2(CCN(C(C)=O)CC2)C1 [Compound P1]								5 (5=80-100%)	5 (5=80-100%)	5 (5=80-100%)	5 (5=80-100%)	5 (5=80-100%)	5 (5=80-100%)	5 (5=80-100%)	5 (5=80-100%)	5 (5=80-100%)	5 (5=80-100%)
